The subject of assay [1] is iPS cells 201B7 strain. Put plainly: Cell number during mesodermal differentiation-induction in medium with β-NMN (Example 3). The class given is cell-based, human. The note with it: mesodermal differentiation-inducing medium containing β-NMN 0.1, 0.25 or 1 mM; 7th day after seeding; versus medium not containing β-NMN. How it is done: The effects of β-NMN on the mesodermal differentiation-induction of iPS cells were examined. The 201B7 strain was used as the iPS cells. The iPS cells were seeded in a 24-well plate coated with Matrigel (manufactured by Corning Incorporated) according to the manufacturer's protocol at 1×10^5 cells/well. The cells in the 24-well plate were cultured in a culture medium for iPS cells adjusted to have a final concentration of Rock inhibitor of 10 μM for 1 day. From the 1st day after seeding, the culture medium was replaced with a culture medium prepared by adjusting a mesoderm differentiation-inducing culture medium of “STEMdiff Trilineage Differentiation kit” (manufactured by STEMCELL Technologies) to have a final concentration of β-NMN of 0, 0.1, 0.25, or 1 mM for 1 day. The culture medium was replaced with a culture medium prepared by adjusting a mesodermal differentiation-inducing culture medium to have final concentrations of both β-NMN and Rock inhibitor of 10 μM only on the 1st day after seeding. Cells of the 7th day after seeding were sampled and the cell numbers were counted. As a result, the number of the cells cultured in the mesodermal differentiation-inducing culture medium containing β-NMN was larger than the number of the cells cultured in the medium not containing β-NMN.

Another assay has as its system iPS cells 253G1 strain. Kind of assay: Flow cytometry of Sox17 after endodermal differentiation-induction following undifferentiated culture with β-NMN (Example 5). The note with it: β-NMN 0.25 or 1 mM during undifferentiated culture, then endodermal differentiation-induction; 5th or 7th day; versus absence of β-NMN. It counts as cell-based. The method, then:
The effects of culturing in the presence of β-NMN before induction of differentiation on the endodermal differentiation-induction of iPS cells was examined. As the iPS cells, the 253G1 strain was used. iPS cells seeded on a culture dish coated with Matrigel (manufactured by Corning Incorporated) according to the manufacturer's protocol were cultured in a culture medium prepared by adjusting a culture medium for iPS cells to have a final concentration of β-NMN 0, 0.25 or 1 mM, and a final concentration of Rock inhibitor of 10 μM for 1 day. From the 1st day after seeding, the culture medium was replaced every day with a culture medium obtained by removing the Rock inhibitor from the culture medium at the time of seeding. When the confluent reached 70 to 80%, the iPS cells were detached from the culture dish and collected. The collected iPS cells were seeded at 3×10^5 cells/well in a 24-well plate coated with Matrigel (manufactured by Corning Incorporated) according to the manufacturer's protocol. […] After washing the stained cells, a flow cytometer “FACS caliber” (manufactured by Becton, Dickinson and Company) was used to analyze the fluorescence intensity of the anti-Sox17 antibody and the fluorescence intensity of the anti-FoxA2 antibody in each sample. […]
In general terms: Flow cytometry measures light scatter and fluorescence of single cells or particles in a stream.

The test system of assay [2] is iPS cells 201B7 strain. Kind of assay: Flow cytometry of Nestin/PAX6 after ectodermal differentiation-induction following undifferentiated culture with β-NMN (Example 7). It counts as cell-based, human. The note with it: β-NMN 0.25 or 1 mM before ectodermal differentiation-induction; 7th or 9th day; versus absence of β-NMN. The method, then: The effects of culturing in the presence of β-NMN before induction of differentiation on the ectodermal differentiation-induction of iPS cells was examined. As the iPS cells, the 201B7 strain was used. The iPS cells were cultured in a culture dish in the same manner as in Example 5, and when the confluent reached 70 to 80%, the iPS cells were detached from the culture dish and collected. The collected iPS cells were seeded at 3×10^5 cells/well in a 24-well plate coated with Matrigel (manufactured by Corning Incorporated) according to the manufacturer's protocol. The cells in the 24-well plate were cultured for 1 day in a culture medium prepared by removing β-NMN from the culture medium when culturing in the culture dish and adjusting to have a final concentration of Rock inhibitor of 10 μM. From the 1st day after seeding, the medium was replaced every day with a culture medium for ectodermal differentiation-induction of “STEMdiff Trilineage Differentiation kit” (manufactured by STEMCELL Technologies). In the same manner as in Example 2, the cells sampled on the 7th or 9th day after seeding were stained with a fluorescently labeled anti-Nestin antibody and a fluorescently labeled anti-PAX6 antibody, and a flow cytometer was used to analyze the fluorescence intensity of the anti-Nestin antibody and the fluorescence intensity of the anti-PAX6 antibody in each sample. […]

The structures appear in SMILES notation.

Take `NC(=O)c1ccc[n+]([C@@H]2O[C@H](COP(=O)([O-])O)[C@@H](O)[C@H]2O)c1` [β-NMN, β-nicotinamide mononucleotide]: in the assay on iPS cells 201B7 strain [1], the “number of the cells” value is on record as “larger”. Further, in the assay with iPS cells 253G1 strain, the “ratio of Sox17-positive cells” value is reported as “higher”. The “ratio of Nestin-positive PAX6-positive cells” value in the assay with iPS cells 201B7 strain [2] was “no clear difference”.
